Counter-ions that a name gives are not always drawn.
Test system: isolated rat aortic strips
Experiment: Contraction of Rat Aortic Strips (inhibition of calcium-induced contracture, calcium channel blocking activity)
Type: cell-based
Conditions: for inhibition at 0.3 µM: Rattus norvegicus, 3×10^-7 M compound, 15 minutes prior to and during calcium curve, 2 mM Ca++, 45 mM potassium, as compared to the control, read-out: % Inhibition (effect on the 2mM Ca++ contracture); for reduction in responsiveness to / contracture at 2 mM Ca++ (in words): 3×10^-7 M, 15 minute exposure
Method: The calcium channel blocking activity of compounds of formula I was determined by measuring the effect of compounds of formula I on isolated rat aortic strips. Contraction of Rat Aortic Strips Aortas were excised from rats, placed in Krebs-Henseleit solution, modified so as to be calcium free, with a depolarized level of potassium (45 mM), and 0.02 mM EDTA. The aorta was then helically cut into a strip. This strip was then divided into four equal segments which were hung in isolated tissue chambers, attached to the appropriate tranducers and subjected to 500 mg basal tension. After a period of stabilization under these conditions, calcium was introduced into the bath and the tissues contracted in a concentration dependent manner. When no calcium is available in the bathing media, and the potential dependent calcium channels are opened by the high potassium level, contractility is dependent on the level of calcium introduced into the bath. By adding increments of calcium into the bath, a reproducible concentration-dependent contracture can be obtained. […] The number for untreated controls was derived by measuring contracture for two runs where calcium alone was added. […] The inhibition in contractile response at 2mMCa++was measured as a per cent inhibition as compared to the control.

Row | SMILES | inhibition at 0.3 µM [%] | reduction in responsiveness to / contracture at 2 mM Ca++ (in words)
1 | COc1ccc([C@H]2SC=C(c3ccccc3)N(CCN(C)C)C(=O)[C@H]2O)cc1 (racemic) [D, cis-rac.-6,7-Dihydro-6-hydroxy-7-(4-methoxyphenyl)-4[2-(dimethylamino)ethyl]-3-phenyl-1,4-thiazepin-5(4H)-one hydrochloride] | -16.5 | –
2 | COc1ccc([C@@H]2SC=C(c3ccccc3)N(CCN(C)C)C(=O)[C@H]2OC(C)=O)cc1 (racemic) [G, trans-rac.-6-(Acetyloxy)-6,7-dihydro-7-(4-methoxy-phenyl)-4-[2-(dimethylamino)ethyl]-3-phenyl-1,4-thiazepin-5(4H)-one hydrochloride] | -8.4 | –
3 | COc1ccc([C@@H]2SC=C(c3ccccc3)N(CCN(C)C)C(=O)[C@H]2O)cc1 (racemic) [H, trans-rac.-6,7-Dihydro-6-hydroxy-7-(4-methoxyphenyl) -4-[2-(dimethylamino)ethyl]-3-phenyl-1,4-thiazepin-5 (4H)-one (E)-2-butenedioate] | -5.6 | –
4 | COc1ccc([C@@H]2SC=C(c3ccccc3)N(CCN(C)C)C(=O)[C@@H]2OC)cc1 (relative stereo) [C, cis-rac.6,7-Dihydro-6-methoxy-7-(4-methoxyphenyl)-4[2-(dimethylamino)ethyl-3-phenyl-1,4-thiazepin-5(4H)-one hydrochloride] | -22.1 | –
5 | COc1ccc([C@@H]2SC=C(c3ccccc3)N(CCN(C)C)C(=O)[C@@H]2OC(C)=O)cc1 (relative stereo) [Compound B, cis-rac.6-(Acetyloxy)-6,7-dihydro-7-(4-methoxyphenyl) -4-[2-(dimethylamino)ethyl]-3-phenyl-1,4-thiazepin-5(4H)-one hydrochloride] | -26.8 | –
6 | COc1ccc([C@@H]2SC=C(c3ccccc3)N(CCN(C)C)C(=O)[C@@H]2OC(C)=O)cc1 [Compound A, (+)-cis-6-(Acetyloxy)-6,7-dihydro-7-(4-methoxyphenyl) 4-[2-(dimethylamino)ethyl]-3-phenyl-1,4-thiazepin-5-(4H)-one hydrochloride] | -63 | inhibited almost two thirds of the contracture
7 | COc1ccc([C@@H]2Sc3ccccc3N(CCN(C)C)C(=O)[C@@H]2OC(C)=O)cc1 [Diltiazem, reference compound] | -77 | marked reduction in responsiveness
8 | COc1ccc([C@@H]2SC=C(c3ccccc3)N(CCN(C)C)C(=O)[C@@H]2O)cc1 [E] | -13 | –
9 | COc1ccc([C@H]2SC=C(c3ccccc3)N(CCN(C)C)C(=O)[C@H]2OC(C)=O)cc1 [F, (-)-cis-6-(Acetyloxy)-6,7-dihydro-7-(4-methoxyphenyl) -4-[2-(dimethylamino)ethyl]-3-phenyl-1,4-thiazepin-5 (4H)-one [S-(R,* R,*)]-2,3-dihydroxybutanedioic acid salt] | -9.1 | –

— patent US4992432A, “3-phenyl-thiazepinones as calcium regulating agents” (Hoffmann-La Roche Inc., priority 1990, dated 1991)
